The text below walks through data of article PMC4773758, “Small Molecule Inhibited Parathyroid Hormone Mediated cAMP Response by N–Terminal Peptide Binding” (Scientific Reports, 2016).

The test system of one data set is cancer cells. The arrangement: method as in PMID 21709916. Conditions: broad range of cancer cells; cited from earlier work.
The subject of the next data set is PTH1R in HEK 293 cells. The data set is described as follows: cAMP assay, compound pre-incubated with cells followed by PTH(1–84). The format is cell-based, Human. As to conditions: compound pre-incubated with the cells, then PTH(1–84). The method, then: The cAMP generation was also analyzed to see the effect of the Zn complex on the receptor itself. Here, the Zn complex was pre-incubated with the cells followed by addition of PTH(1–84). […] In another control experiment cAMP generation was also studied by incubating the 9-anthracenemethanol with the peptide (Figure S9) or directly with the cells (grey bars in Figure S7). […] Additionally, inhibition of cAMP response or cell toxicity was also not observed up to 100 μM of Zn–perchlorate (Figure S10).
HEK 293 cells stably expressing hPTH1R were used for the cAMP accumulation assay following the previously reported procedure. The reaction was carried out at 37 °C and fluorescence measurements were taken using a VICTOR X4 2030 plate reader (PerkinElmer Life and Analytical Sciences). A fixed amount of 0.01 μM peptide hormones and 4 × 10^3 cells per well were used to monitor the cAMP response. The Zn complex or 9-anthracenemethanol was diluted form 0.1 μM to 100 μM and incubated for 15 minutes with the peptide hormone before addition of HEK 293 cells. […] The maximum cAMP response were calculated as a percentage of the maximal response of PTH(1–34) or PTH(1–84). The effect of Zn complex or 9-anthracenemethanol on receptor was evaluated by incubating these with the cells for 15 minutes followed by washing with buffer. […]
A general note: cAMP levels reflect the balance of adenylyl cyclase and phosphodiesterase activity.

Data set [1] addresses T1, PTH(1–84) (Homo sapiens, UniProt P01270).
T1 construct: SUMO (N, cleaved yes); His-tag (C); made in house; host or cells: E. coli BL21 codon+
T1 sequence (P01270 32-115): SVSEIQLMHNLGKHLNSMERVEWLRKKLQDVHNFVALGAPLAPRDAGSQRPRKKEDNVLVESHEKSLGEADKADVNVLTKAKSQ
The data set is described as follows: NMR 1H–15N HSQC titration with 15N–PTH(1–84). In kind it is binding. Conditions: pH 5.3, 25 °C. An excerpt:
Preferential binding at residue-level resolution was further investigated by choosing full length ^15N PTH(1–84) to see whether or not the C–terminal region is involved in the Zn complex interaction. […] These NMR spectra indicate that the N–terminal domain of PTH (1–84) binds to the Zn complex whereas the C–terminus part remains solvent exposed and flexible enough to result in observable resonances. […] Histidine 63 is the only exception in the C–terminal part of PTH(1–84) sensing complex formation.
The spectra were recorded at the concentration of 50 μM of peptide hormones. Subsequently, titration was carried out with the addition of 0.5 μl of 10 mM Zn complex until there was no further change in NMR intensity observed. The spectrum corresponding to the 1:4 complex formations was used for the analysis. For the 9-anthracenemethanol titration experiment 20 μM of PTH was used. A titration was carried out and the 1:4 complex of PTH:9-anthracenemethanol was analyzed in detail. The spectra were corrected for the dilution factor. The previously determined NMR assignments of PTH resonances were used[24][63][64]. The spectra were recorded in the 10 mM BisTris, 300 mM Na2SO4, 0.02% NaN3, pH 5.3, with a Bruker 800 MHz Avance III spectrometer equipped with a CP–TCI cryoprobe at 25 °C. Spectra were processed using the programs NMRPipe and NMR Draw.

For data set [2], the system named is PTH(1–84) induced cAMP in HEK 293 cells expressing hPTH1R. In words: cAMP accumulation assay, compound pre-incubated with PTH(1–84). Conditions: PTH(1–84) 0.01 μM, 15 min pre-incubation with peptide. The format is cell-based, Human. The text has this:
NMR spectroscopy identified that the Zn complex interacts with the N–terminal part of the peptide hormone. The binding region from residues 1–37 of PTH(84) is important for recognition, interaction with the extracellular loops and trans–membrane helices of the receptor and bringing about activation of the later. There are two principal signal transduction pathways involving the G protein–coupled receptors: the cAMP signal pathway and the phosphatidylinositol signal pathway. Parathyroid hormone is involved in the cAMP pathway for its biological regulation. Because binding of the Zn complex was at the N–terminal part of PTH, it is interesting to investigate the cAMP response towards its receptor in the presence of the Zn complex. Therefore PTH(1–34) and PTH(1–84) induced cAMP accumulation was measured in stable HEK 293 cell lines expressing recombinant PTH1R[33]. A cAMP generation assay was carried out in a Zn complex concentration dependent manner, keeping the cells and peptide hormone concentrations constant. PTH response without Zn complex was considered as 100% cAMP response. The peptide hormones were exposed to Zn complex for 15 minutes to allow for complex formation and subsequently cAMP generation was studied.
HEK 293 cells stably expressing hPTH1R were used for the cAMP accumulation assay following the previously reported procedure. The reaction was carried out at 37 °C and fluorescence measurements were taken using a VICTOR X4 2030 plate reader (PerkinElmer Life and Analytical Sciences). A fixed amount of 0.01 μM peptide hormones and 4 × 10^3 cells per well were used to monitor the cAMP response. The Zn complex or 9-anthracenemethanol was diluted form 0.1 μM to 100 μM and incubated for 15 minutes with the peptide hormone before addition of HEK 293 cells. All experiments were performed in triplicate and repeated independently three times. The maximum cAMP response were calculated as a percentage of the maximal response of PTH(1–34) or PTH(1–84). The effect of Zn complex or 9-anthracenemethanol on receptor was evaluated by incubating these with the cells for 15 minutes followed by washing with buffer. These treated cells were added to the reaction mixture containing untreated PTH(1–84) as described above.

Details of data set [3]: method as in PMID 21709916. Conditions: cited from earlier work.
Data set [4] deals with T2, PTH(1–34) (Homo sapiens, UniProt P01270).
T2 construct: Human PTH(1–34) and PTH(1–84) were purified as previously reported; SUMO (N, cleaved yes); His-tag (C); made in house; host or cells: E. coli BL21 codon+
T2 sequence (P01270 32-65 limits assumed): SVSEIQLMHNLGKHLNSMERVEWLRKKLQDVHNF
The data set is described as follows: ITC with PTH(1–34). In kind it is binding. As to conditions: 25 °C. The protocol: (§1) ITC is a well suited method to evaluate protein-ligand interaction. The interaction of the Zn complex with PTH(1–34) and PTH(1–84) was evaluated by ITC at 25 °C. Zn complex binding was exothermic in nature for both the peptides (Fig. 3b and Figure S4). Data fitting gave n values of 2.28 ± 0.13 and 1.93 ± 0.04 for PTH(1–34) and PTH(1–84), respectively. […] The enthalpic gain counterbalances the unfavorable loss in entropy of the system upon complex binding.
(§2) The calorimetric titrations were performed at 25 °C with a MicroCal VPITC isothermal titration calorimeter. Small aliquots (7 μl) of the Zn complex were added to a solution of the respective peptide in the calorimeter cell. Successive additions were separated by a 300 second interval to allow the resulting peak from peptide Zn complex interaction to return to the baseline. All of the studies were carried out in 10 mM BisTris, 300 mM Na2SO4, pH 7.2.

Data set [5] has as its target T1, PTH(1–84). In words: Fluorescence quenching titration with PTH(1–84). The format is binding. The method, then: (§3) The natural form of parathyroid hormone comprises 84 residues, however, PTH(1–34) is sufficient for receptor activation. PTH contains one tryptophan residue at position 23. Thus it can be used as a highly sensitive fluorescent probe for the analysis of ligand binding by fluorescence spectroscopy. PTH is composed of structured sections mainly from positions 1–37, whereas the C–terminal part is largely unstructured. […] In order to establish the binding a titration experiment was carried out where the PTH(1–34) concentration was kept constant and the concentration of the Zn complex was varied.
(§4) The fluorescence quenching behavior was analyzed according to the equation given in the experimental section. […] In order to evaluate the interaction at the C–terminal part of the PTH and its role in binding, full length PTH(1–84) was taken and its binding was established.
(§5) Fluorescence titrations were carried out on a JASCO FP6500. The samples were excited at 280 nm wavelength and the emission spectra were recorded in the range between 290 nm to 450 nm. Experiments were carried out in 10 mM BisTris, 300 mM Na2SO4, 0.02% NaN3, pH 7.2 using a 1 cm path length quartz cell. The concentration of PTH(1–34), PTH(1–84) and nECD-PTH1R used in the titration experiments were 7.4 μM, 8.1 μM and 5 μM, respectively. In a typical titration experiment, 4 μM of Zn complex or 9-anthracenemethanol was added and spectra were recorded after each addition. Zn complex or 9-anthracenemethanol in buffer was used as blank titration and these spectral traces were subtracted from the main titration. The Zn complex or 9-anthracenemethanol was dissolved in dimethyl sulfoxide and further diluted for experiments. The final concentration of DMSO was <1% in any experiment.
(§6) Fluorescence data were analyzed according to the following equation:
(§7) with P = (P0 / (V0 + L))V0 and L1 = (L0 / (V0 + L))L and Q – fluorescence intensity, P – protein concentration, L – ligand concentration, V – volume, n – binding sites and 0 – indicates start point.

Data set [6] deals with PTH(1–34) induced cAMP in HEK 293 cells expressing hPTH1R. In words: cAMP accumulation assay, compound pre-incubated with PTH(1–34). In kind it is cell-based, Human. Conditions: PTH(1–34) 0.01 μM, 15 min pre-incubation with peptide. An excerpt: NMR spectroscopy identified that the Zn complex interacts with the N–terminal part of the peptide hormone. The binding region from residues 1–37 of PTH(84) is important for recognition, interaction with the extracellular loops and trans–membrane helices of the receptor and bringing about activation of the later. There are two principal signal transduction pathways involving the G protein–coupled receptors: the cAMP signal pathway and the phosphatidylinositol signal pathway. Parathyroid hormone is involved in the cAMP pathway for its biological regulation. […] Therefore PTH(1–34) and PTH(1–84) induced cAMP accumulation was measured in stable HEK 293 cell lines expressing recombinant PTH1R[33]. […]
HEK 293 cells stably expressing hPTH1R were used for the cAMP accumulation assay following the previously reported procedure. The reaction was carried out at 37 °C and fluorescence measurements were taken using a VICTOR X4 2030 plate reader (PerkinElmer Life and Analytical Sciences). […] The maximum cAMP response were calculated as a percentage of the maximal response of PTH(1–34) or PTH(1–84). The effect of Zn complex or 9-anthracenemethanol on receptor was evaluated by incubating these with the cells for 15 minutes followed by washing with buffer. […]

In data set [7] the target is T1, PTH(1–84). In words: ITC with PTH(1–84). The format is binding. Conditions: 25 °C. The protocol:
as §1, §2

The target in data set [8] is T2, PTH(1–34). In words: Fluorescence quenching titration with PTH(1–34). The format is binding. The method, then: as §3, §4, §5, §6, §7
A further data set can be described thus: Water solubility. In kind it is physicochemical. As to conditions: in the absence of the metal. An excerpt:
As GPCRs are involved in many diseases, they are targets for approximately 40% of all human modern medicinal drugs. However, these drugs target only a small fraction (about 10%) of known GPCRs[37]. Within the context of receptors including GPCRs, typically available drug molecules for pharmacological applications directly target the receptors. However, literature is limited with regards to molecules which bind to the agonist to modify its receptor activating function. A potential class of molecules for this purpose could be organic/coordination/mixed–ligand complexes. In mixed–ligand complexes one metal ion can replace another metal ion bearing the original skeletal system. A metal replacement can lead to suppressed or negligible biological responses. […] In principle, Zn(II) is less toxic than Cu(II) and it is redox silent therefore, this metal was chosen in exchange of Cu(II).

Where [9] appears, read: read-out: concentration at which 50% reduced activity (cAMP response) was observed.

Regarding “Zn(II) complex of anthracenyl terpyridine [Zn complex]”, the antiproliferative activity result in the data set on cancer cells is “did not show nuclease or antiprolifirative activities”. Further, in the data set on PTH1R in HEK 293 cells, the “suppression of cAMP generation” value was “did not show a significant suppression”. For the same molecule, on PTH(1–84) [1], the “change in NMR cross peaks / intensity of PTH(1–84)” value is “binds to N–terminal residues”. Further, the “concentration for complete suppression of the cAMP response” value in [2] and in data set [6] was ~ 20 μM in each case. The IC50 in data set [2] (setting [9]) and in [6] (setting [9]) was 2 µM each time. Further, in data set [3], the nuclease activity result is “did not show nuclease or antiprolifirative activities”. Also, the dissociation constant (Kd) stood at 55.06 ± 0.06 µM at PTH(1–34) [4]; 34 ± 1.7 µM on PTH(1–84) [5] (fluorescence quenching, PTH(1–84) 8.1 μM, pH 7.2); 54.1 ± 0.08 µM at PTH(1–84) [7]; 27 ± 1.8 µM on PTH(1–34) [8] (fluorescence quenching, PTH(1–34) 7.4 μM, pH 7.2). The “n (ITC)” value turned out to be 2.28 ± 0.13 at PTH(1–34) [4] and 1.93 ± 0.04 at PTH(1–84) [7]. Also, the “∆H (ITC)” value on PTH(1–34) [4] was -5.9 ± 0.1 kcal/mol; on PTH(1–84) [7], -11.25 ± 0.3 kcal/mol. Further, the “∆S (ITC)” value is −5.37 cal mol^−1K^−1 on PTH(1–34) [4] and −7.15 cal mol^−1K^−1 at PTH(1–84) [7]. Moreover, the “reduced fluorescence intensity at the end of the titration” value on PTH(1–84) [5] (76 μM of Zn complex, PTH(1–84)) is ~ 75%; at PTH(1–34) [8] (76 μM of Zn complex, PTH(1–34)) it was ~ 86%. Further, the “CF50 (concentration required for 50% quenching of fluorescence intensity)” value on PTH(1–84) [5] (PTH(1–84)) is 31.8 ± 0.8 µM; on PTH(1–34) [8] (PTH(1–34)), 21.46 ± 0.5 µM. Further, at PTH(1–84) [5] (fluorescence quenching, PTH(1–84)), the stoichiometry was 2.0. Also, the “stoichiometry (numbers of binding sites with equal affinities)” value on PTH(1–34) [8] (fluorescence quenching, PTH(1–34)) is 1.9.
With “Cu(II) complex of anthracenyl terpyridine [reference compound]”, the antiproliferative activity result in the data set on cancer cells is “showed nuclease and antiprolifirative activity”. For the same molecule, the nuclease activity entry in data set [3] is “showed nuclease and antiprolifirative activity”.
As to `c1ccc(-c2cc(-c3c4ccccc4cc4ccccc34)cc(-c3ccccn3)n2)nc1` [anthracenyl terpyridine], the water solubility result in the data set “Water solubility” was “water insoluble”.

For orientation: Kd means the concentration at which binding is half-saturated. Low readings indicate a tighter complex, high ones a looser complex.
